Measurements: ChEMBL document CHEMBL6103583, “Purified Monascus Pigments: Biological Activities and Mechanisms of Action” (J Nat Prod, 2025)
In brackets after ≈: the same amount, converted by molar mass.

Key:
Aspergillus niger = test: Antifungal activity against Aspergillus niger KCCM 11239 assessed as reduction in […] incubated for 12 hrs by micro-dilution method; assay type: functional
Enterococcus faecalis = test: Antibacterial activity against Enterococcus faecalis KCCM 11814 assessed as reduction in bacterial growth incubated for 12 hrs by broth micro-dilution method; assay type: functional
Bacillus subtilis = test: Antibacterial activity against Bacillus subtilis KCCM 11316 assessed as reduction in bacterial growth incubated for 12 hrs by broth micro-dilution method; assay type: functional
Staphylococcus aureus [1] = test: Antibacterial activity against Staphylococcus aureus KCCM 11817 assessed as reduction in bacterial growth incubated for 12 hrs by broth micro-dilution method; assay type: functional
Pseudomonas aeruginosa = test: Antibacterial activity against Pseudomonas aeruginosa KCCM 11328 assessed as reduction in bacterial growth incubated for 12 hrs by micro-dilution method; assay type: functional
Staphylococcus aureus [2] = test: Antibacterial activity against Staphylococcus aureus […] assessed as reduction in bacterial growth incubated for 12 hrs by broth micro-dilution method; assay type: functional
[3] = Antibacterial activity against Salmonella choleraesuis KCCM 11806 assessed as reduction in bacterial growth; assay type: functional, Salmonella enterica subsp. enterica serovar Choleraesuis; conditions: Salmonella enterica
Penicillium citrinum = test: Antifungal activity against Penicillium citrinum KCCM 11663 assessed as reduction in […] incubated for 12 hrs by micro-dilution method; assay type: functional
Klebsiella aerogenes = test: Antibacterial activity against Enterobacter aerogenes KCCM 12177 assessed as reduction in bacterial growth incubated for 12 hrs by broth micro-dilution method; assay type: functional
Salmonella typhimurium = test: Antibacterial activity against Salmonella Typhimurium KCCM 11806 assessed as reduction in bacterial growth incubated for 12 hrs by micro-dilution method; assay type: functional, Salmonella enterica subsp. enterica serovar Typhimurium; conditions: Salmonella enterica
Candida albicans = test: Antifungal activity against Candida albicans KCCM 10231 assessed as reduction in […] incubated for 12 hrs by micro-dilution method; assay type: functional
Penicillium digitatum = test: Antifungal activity against Penicillium digitatum KCCM 60140 assessed as reduction in […] incubated for 12 hrs by micro-dilution method; assay type: functional
Shigella sonnei = test: Antibacterial activity against Shigella sonnei KCCM 40253 assessed as reduction in bacterial growth incubated for 12 hrs by micro-dilution method; assay type: functional
Proteus vulgaris = test: Antibacterial activity against Proteus vulgaris KCCM 11906 assessed as reduction in bacterial growth incubated for 12 hrs by broth micro-dilution method; assay type: functional
Haemophilus influenzae = test: Antibacterial activity against Haemophilus influenzae KCCM 11903 assessed as reduction in bacterial growth incubated for 12 hrs by broth micro-dilution method; assay type: functional
RAW264.7 [4] = test: Antiinflammatory activity against mouse RAW264.7 cells assessed as inhibition of LPS-NO production incubated for 24 hrs by Griess reagent based assay; assay type: functional, cell-based; conditions: RAW264.7, 24 h
RAW264.7 [5] = test: Antiinflammatory activity against mouse RAW264.7 cells assessed as inhibition of LPS-NO production by Griess reagent based assay; assay type: functional, cell-based
WiDr [6] = test: Antiproliferative activity against human WiDr cells assessed as reduction in cell growth incubated for 3 days by MTT assay; assay type: functional, cell-based; conditions: 72 h
HEp-2 [7] = test: Antiproliferative activity against human HEp-2 cells assessed as reduction in cell growth incubated for 3 days by MTT assay; assay type: functional, cell-based; conditions: HEp-2, 72 h
HEp-2 [8] = test: Antiproliferative activity against human HEp-2 cells assessed as reduction in cell viability incubated for 72 hrs by MTT assay; assay type: functional, cell-based; conditions: HEp-2, 72 h
WiDr [9] = test: Antiproliferative activity against human WiDr cells assessed as reduction in cell viability incubated for 72 hrs by MTT assay; assay type: functional, cell-based
AGS = test: Antiproliferative activity against human AGS cells assessed as reduction in cell viability incubated for 24 hrs by MTT assay; assay type: functional, cell-based
SH-SY5Y = test: Antiproliferative activity against human SH-SY5Y cells assessed as reduction in cell viability incubated for 24 hrs by MTT assay; assay type: functional, cell-based
HeLa [10] = test: Antiproliferative activity against human HeLa cells assessed as reduction in cell viability incubated for 24 hrs under light irradiation by MTT assay; assay type: functional, cell-based; conditions: light or radiation study
HepG2 = test: Antiproliferative activity against human HepG2 cells assessed as reduction in cell viability incubated for 24 hrs by MTT assay; assay type: functional, cell-based; conditions: HepG2, 24 h
MKN-45 = test: Antiproliferative activity against human MKN-45 cells assessed as reduction in cell viability incubated for 24 hrs by MTT assay; assay type: functional, cell-based; conditions: MKN-45, 24 h
HT-29 = test: Antiproliferative activity against human HT-29 cells assessed as reduction in cell viability incubated for 24 hrs by MTT assay; assay type: functional, cell-based; conditions: HT-29, 24 h
BGC-823 = test: Antiproliferative activity against human BGC-823 cells assessed as reduction in cell viability incubated for 24 hrs by MTT assay; assay type: functional, cell-based; conditions: BGC-823, 24 h
HeLa [11] = test: Antiproliferative activity against human HeLa cells assessed as reduction in cell viability incubated for 24 hrs by MTT assay; assay type: functional, cell-based

N[C@H](Cc1ccc(O)cc1)C(=O)O
MIC (Aspergillus niger): 4 µg/mL (≈ 22.1 µM)
MIC (Enterococcus faecalis): 4 µg/mL (≈ 22.1 µM)
MIC (Bacillus subtilis): 4 µg/mL (≈ 22.1 µM)
MIC (Staphylococcus aureus [1]): 16 µg/mL (≈ 88.3 µM)
MIC (Pseudomonas aeruginosa): 16 µg/mL (≈ 88.3 µM)
MIC (Staphylococcus aureus [2]): 8 µg/mL (≈ 44.2 µM)
MIC [3]: 4 µg/mL (≈ 22.1 µM)
MIC (Penicillium citrinum): 4 µg/mL (≈ 22.1 µM)
MIC (Klebsiella aerogenes): 16 µg/mL (≈ 88.3 µM)
MIC (Salmonella typhimurium): 4 µg/mL (≈ 22.1 µM)
MIC (Candida albicans): 16 µg/mL (≈ 88.3 µM)
MIC (Penicillium digitatum): 32 µg/mL (≈ 177 µM)
MIC (Shigella sonnei): 8 µg/mL (≈ 44.2 µM)
MIC (Proteus vulgaris): 16 µg/mL (≈ 88.3 µM)
MIC (Haemophilus influenzae): 16 µg/mL (≈ 88.3 µM)

C/C=C/C1=CC2=C/C(=C(/C#N)C(=O)CCCCC)C(C)(O)C(=O)C2=CO1 (configuration not stated)
IC50 (RAW264.7 [4]): 2.6 µM

C/C=C/C1=CC2=C(CO1)C(=O)[C@](C)(O)[C@@H](CC(=O)CCCCC)C2
IC50 (RAW264.7 [5]): 22.6 µM
IC50 (WiDr [6]): 55.3 µM
IC50 (HEp-2 [7]): 77.6 µM

C/C=C/c1cc2c(cn1)C(=O)[C@](C)(O)[C@@H](CC(=O)CCCCC)C2
IC50 (RAW264.7 [4]): 57.1 µM

C/C=C/C1=CC2=CC3=C(C(=O)CCCCC)C(=O)O[C@@]3(C)[C@@H](O)C2=CO1
IC50 (HEp-2 [8]): 14.8 µM
IC50 (WiDr [9]): 15.7 µM
IC50 (RAW264.7 [4]): 3.65 µM

C/C=C/C1=CC2=CC3=C(C(=O)CCCCC)C(=O)OC3(C)C(=O)C2=CN1 (configuration not stated)
IC50 (RAW264.7 [4]): 12.5 µM

C/C=C/C1=CC2=CC3=C(C(=O)CCCCCCC)C(=O)O[C@@]3(C)[C@@](O)(CC(C)=O)C2=CO1
IC50 (HEp-2 [8]): 8.7 µM
IC50 (WiDr [9]): 11 µM
IC50 (RAW264.7 [4]): 2.72 µM

C/C=C/C1=CC2=CC3=C(C(=O)CCCCC)C(=O)O[C@@]3(C)[C@@](O)(CC(C)=O)C2=CO1
IC50 (HEp-2 [8]): 10.4 µM
IC50 (WiDr [9]): 10.5 µM
IC50 (RAW264.7 [4]): 1.7 µM

C/C=C/C1=CC2=CC3=C(C(=O)CCCCC)C(=O)O[C@@]3(C)C(=O)C2=CO1
IC50 (HEp-2 [8]): 107 µM
IC50 (AGS): 7.98 µM
IC50 (SH-SY5Y): 30.9 µM
IC50 (WiDr [9]): 109 µM
IC50 (HeLa [10]): 24 µM
IC50 (RAW264.7 [4]): 21.2 µM
IC50 (HepG2): 44.2 µM
IC50 (MKN-45): 14.3 µM
IC50 (HT-29): 36.7 µM
IC50 (BGC-823): 12.6 µM
IC50 (HeLa [11]): 93.7 µM

CCCCCCCCCC(=O)[C@H]1C(=O)O[C@]2(C)C(=O)C=C3C=C(CC(C)OC(C)=O)OC=C3[C@H]12 (some centres not stated)
IC50 (RAW264.7 [4]): 16.6 µM
